Patent US20240148000A1, “METHOD FOR CONTROLLING HARMFUL ARTHROPODS OR HARMFUL NEMATODES USING ZOANTHAMINE” (SUMITOMO CHEMICAL COMPANY, LIMITED, priority 2021, published 2024)

How the values were obtained:
[1] = system: cotton worm (Spodoptera litura); assay: Test Method 1: foliar spray on cabbage seedling, cotton worm larvae; assay type: in vivo; conditions: 200 ppm, sprayed 20 mL/seedling on cabbage, third-instar larvae, after 6 days, Formulation Example 5, 25° C.
Description: (§1) Next, Test Examples are used to show efficacy of the Present compounds on controlling harmful arthropods and harmful nematodes. The following Test Examples were carried out at 25° C. Also, the “untreated group” represents a group where the similar treatment procedure to that of the treated group except not using the test compound is done.
(§2) Test compound is made to a formulation according to a similar method to that described in the Formulation Example 5, and thereto is added water containing 0.03 v/v % of Shindain (registered trademark) to prepare a diluted solution containing a prescribed concentration of the test compound.
(§3) Cabbage (Brassicae oleracea) seedling (on the developmental stage of the third to fourth true leaf) is planted in a container, and the diluted solutions are sprayed to the seedling at a ratio of 20 mL/seedling. Thereafter, 10 of third-instar larvae of cotton worm (Spodoptera litura) are released. After 6 days, the number of the surviving insects is counted, and the mortality of insects is calculated by the following equation.
(§4) Mortality (%)=(1−Number of surviving insects/10)×100
The test was conducted by making the prescribed concentration 200 ppm and using each of the below-mentioned Present compounds as a test compound according to the Test Method 1.

[2] = system: diamondback moth (Plutella xylostella); assay: Test Method 2: foliar spray on cabbage seedling, diamondback moth larvae; assay type: in vivo; conditions: third-instar larvae, after 6 days
Description: as §1, §2
as §3, with “diamondback moth (Plutella xylostella)” for “cotton worm (Spodoptera litura)”, “released to the container.” for “released.”
as §4
The test was conducted by making the prescribed concentration 200 ppm and using each of the below-mentioned Present compounds as a test compound according to the Test Method 2.
The test was conducted by making the prescribed concentration 500 ppm and using the below-mentioned Present compound as a test compound according to the Test Method 2 except for formulating it according to the Formulation Example 1 instead of the Formulation Example 5.

[3] = system: brown planthoppers (Nilaparvata lugens); assay: Test Method 5: foliar spray on rice seedling, brown planthoppers; assay type: in vivo; conditions: 200 ppm, sprayed 10 mL/seedling on rice, third-instar larvae, after 6 days
Description: as §1
The test compound is made to a formulation according to a similar method to that described in the Formulation Example 5, and thereto is added water containing 0.03 v/v % of Shindain (registered trademark) to prepare a diluted solution containing a prescribed concentration of the test compound.
Rice (Oryza sativa) seedling (on the developmental stage of the second true leaf) is planted in a container, and the diluted solutions are sprayed to the seedling at a ratio of 10 mL/seedling. Thereafter, 20 of third-instar larvae of brown planthoppers (Nilaparvata lugens) are released onto the rice seedling. After 6 days, the number of the surviving insects is examined and the mortality of insects is calculated by the following equation.
Mortality={1−Number of surviving insects/20}×100
The test was conducted by making the prescribed concentration 200 ppm and using each of the below-mentioned Present compounds as a test compound according to the Test Method 5.

[4] = system: common house mosquito (Culex pipiens pallens) last instar larvae; assay: Test Method 9: common house mosquito larvae in diluted solution; assay type: in vivo; conditions: 3.5 ppm in water, Formulation Example 1, last instar larvae, after 1 day
Description: as §1
The test compound is made to a formulation according to a similar method to that described in the Formulation Example 1, and thereto is added water to prepare a diluted solution containing a prescribed concentration of the test compound.
Into the diluted solution, 30 last instar larvae of common house mosquito (Culex pipiens pallens) are released, and after 1 day, the state of the common house mosquito larvae is examined, and the mortality of insects is calculated by the following equation.
(§5) Mortality (%)=(Number of dead insects/Number of tested insects)×100
The test was conducted by making the prescribed concentration 3.5 ppm and using each of the below-mentioned Present compounds as a test compound according to the Test Method 9.

[5] = system: common house mosquito (Culex pipiens pallens) female adults; assay: Test Method 10: coated container contact test, common house mosquito female adults; assay type: in vivo; conditions: 10 mg/m^2 coated on inner face of container, after 1 day
Description: as §1
(§6) The test compound is dissolved into acetone containing a surfactant, then the solution is poured into a 20 mL container, the solution is coated uniformly on the inner face of the container so that the test compound will be 10 mg/m^2 and the surfactant will be 40 mg/m^2, and the container is then dried.
Five (5) common house mosquito (Culex pipiens pallens) female adults are released into the container, and the container is then covered with lid. After the prescribed time, the state of the common house mosquito is examined, and the mortality is calculated by the following equation.
as §5
The test was conducted by making the prescribed time 1 day and using each of the below-mentioned Present compounds as a test compound.

[6] = system: cat flea (Ctenocephalides felis); assay: Test Method 11: coated container contact test, cat flea adults; assay type: in vivo; conditions: 20 mg/m^2 coated on inner face of container, after 2 days
Description: as §1
as §6, with “20” for “10”
Ten (10) cat flea (Ctenocephalides felis) adults are released into the container, and the container is then covered with lid. After the prescribed time, the state of the cat flea is examined, and the mortality is calculated by the following equation.
as §5
The test was conducted by making the prescribed time 2 days and using each of the below-mentioned Present compounds as a test compound.

[7] = system: southern root-knot nematodes (Meloidogyne incognita); assay: Test Example 12: tomato seedlings in soil contaminated with southern root-knot nematodes; assay type: in vivo; conditions: 60 mg in 60 mL: 20 mL mixed with 400 mL contaminated soil, 40 mL irrigated; tomato roots after 28 days; untreated group 5
Description: as §1
The Present compound 1 or 2 (60 mg) was dissolved into acetone (600 μL) containing 5% of Tween 20, and then thereto was added water to prepare a solution (60 mL).
The solution (20 mL) and soil (400 mL) contaminated with southern root-knot nematodes (Meloidogyne incognita) were mixed, and roots of healthy tomato (Lycopersicon esculentum) seedlings (third to fourth leaf stage) were transferred to the soil. Shortly after the transfer, the remaining solution (40 mL) was irrigated to the soil of the tomato seedlings.
After 28 days, the roots were pulled out of the soil, washed with water, and the degree of root damage (degree of root-knot) was investigated according to the Zeck's root-knot index (Zeck, W. M. (1971): Pflanzenschutz-Nachichten. Bayer AG, 24, 141-144.).
• 0: No root-knot is observed. • 1: Several small root-knots can be recognized by careful observation. • 2: Several small root-knots similar to 1 can be easily identified. • 3: There are many small root-knots, and some of which are fused. […]

[8] = system: P388 mouse leukemia cells; conditions: Nonpatent Document 2; cited from earlier work
[9] = 200 ppm, sprayed 20 mL/seedling on cabbage, Formulation Example 5, 25° C.

Row | Compound | mortality [1] | mortality [2, 9] | mortality [3] | mortality [4] | mortality [5] | mortality [6] | root-knot index (Zeck's root-knot index) [7] | mortality ([2]; 500 ppm, Formulation Example 1 instead of 5, sprayed 20 mL/seedling on cabbage) | growth of P388 mouse leukemia cells [8]
1 | CC1=CC(=O)[C@H]2CC(=O)[C@H]3[C@@](C)(C[C@@]45OC(=O)C[C@]3(C)[C@]4(C)CC[C@]34C[C@@H](C)C[C@H](CN35)O4)[C@@H]2C1 [compound 1] | 100% | 100% | 100% | 100% | 100% | 100% | 2 (Several small root-knots similar to 1 can be easily identified.) |  | 
2 | CC1=CC(=O)[C@@H]2[C@@H](C1)[C@]1(C)C[C@@]34OC(=O)C[C@@](C)([C@H]1C(=O)[C@@H]2C)[C@]3(C)CC[C@]12C[C@@H](C)C[C@H](CN14)O2 [compound 2] | 100% | 100% | 100% | 100% | 100% | 100% | 2 (Several small root-knots similar to 1 can be easily identified.) |  | 
3 | CC1=CC(=O)[C@H]2CC(=O)[C@H]3[C@@](C)(C(=O)[C@@]45OC(=O)C[C@]3(C)[C@]4(C)CC[C@]34C[C@@H](C)C[C@H](CN35)O4)[C@@H]2C1 [compound 3] |  |  |  | 100% |  |  |  |  | 
4 | CC1=CC(=O)[C@@H]2[C@@H](C1)[C@]1(C)C(=O)[C@@]34OC(=O)C[C@@](C)([C@H]1C(=O)[C@@H]2C)[C@]3(C)CC[C@]12C[C@@H](C)C[C@H](CN14)O2 [compound 4] |  |  |  | 100% |  |  |  | 80% | 
5 | CC1=CC(=O)[C@H]2CC(=O)[C@H]3[C@@](C)(C[C@@]45OC(=O)C[C@]3(C)[C@]4(C)CC[C@]34C[C@@H](C)C[C@H](CN35)O4)[C@@H]2C1.Cl [compound 5] | 100% | 100% | 100% |  | 100% |  |  |  | 
6 | CC1=CC(=O)[C@@H]2[C@@H](C1)[C@]1(C)C[C@@]34OC(=O)C[C@@](C)([C@H]1C(=O)[C@@H]2C)[C@]3(C)CC[C@]12C[C@@H](C)C[C@H](CN14)O2.Cl [compound 6] | 100% | 100% | 100% |  | 100% |  |  |  | 
7 | norzoanthamine [Present compound 1] |  |  |  |  |  |  |  |  | inhibits the growth
